Data as given in patent US8193361B2, “I-alkynyl 2-aryloxyalkylamides and their use as fungicides” (Syngenta Limited, priority 2004, dated 2012).

Key:
Pyricularia oryzae = assay type: in vivo; settings: 200 ppm; rice leaf segments; assessed four days after inoculation
[1] = system: Puccinia recondita f. sp. tritici; assay: Leaf disk assay, Puccinia recondita f. sp. tritici (wheat brown rust), preventive; assay type: in vivo; settings: 200 ppm; wheat leaf segments; assessed nine days after inoculation
Protocol: The compounds were tested in a leaf disk assay, with methods described below. The test compounds were dissolved in DMSO and diluted into water to 200 ppm. In the case of the test on Pythium ultimum, they were dissolved in DMSO and diluted into water to 20 ppm.
Erysiphe graminis f. sp. hordei (barley powdery mildew): Barley leaf segments were placed on agar in a 24-well plate and sprayed with a solution of the test compound. After allowing to dry completely, for between 12 and 24 hours, the leaf disks were inoculated with a spore suspension of the fungus. After appropriate incubation the activity of a compound was assessed four days after inoculation as preventive fungicidal activity. Erysiphe graminis f. sp. tritici (wheat powdery mildew): Wheat leaf segments were placed on agar in a 24-well plate and sprayed with a solution of the test compound. After allowing to dry completely, for between 12 and 24 hours, the leaf disks were inoculated with a spore suspension of the fungus. After appropriate incubation the activity of a compound was assessed four days after inoculation as preventive fungicidal activity. […] After appropriate incubation the activity of a compound was assessed nine days after inoculation as preventive fungicidal activity. […] After appropriate incubation the activity of a compound was assessed four days after inoculation as preventive fungicidal activity.

Row | SMILES | control of fungal infection (Pyricularia oryzae) | control of fungal infection [1]
1 | CC#CC(C)(C)NC(=O)C(Oc1ccc2oc3ccccc3c2c1)SC (centres unmarked) [4 (16), 2-(dibenzofuranyl-2-oxy)-2-methylthio-N-(2-methylpent-3-yn-2-yl)acetamide] | at least 60% | 
2 | C#CC(C)(C)NC(=O)C(Oc1ccc2oc3ccccc3c2c1)SC (centres unmarked) [1 (16)] |  | at least 60%
